Test results taken from US20070141181A1, “Use of anabolic agents, anti-catabolic agents, antioxidant agents, and analgesics for protection, treatment and repair of connective tissues in humans and animals” (NUTRAMAX LABORATORIES, INC., priority 1998, published 2007).
Values joined by “and” are separate entries in the source; they are usually repeats but may differ in a detail not shown here. Equal values may be shown once.

System: adult bovine cartilage cells
Experiment: GAG synthesis (35-sulfate incorporation) in cultured cartilage cells
Assay type: cell-based
Details: 4 hours incubation, individual agent
Experimental: Articular cartilage was resected from human or animal joints aseptically and placed into a large petri dish in a small amount of DMEM/F-12 or F-12. The tissue was diced to 1-2 mm dimensions and transferred to a small culture flask containing 20 mL DMEM or F-12+400 u/mL collagenase. The flask was placed on the shaker and incubated overnight.
The cell digest was repeatedly aspirated to increase release of cells. The cell digest was then placed into a 50 mL sterile centrifuge tube and centrifuged in the Beckman at 1000 RPM for 10 minutes. The medium was discarded by pipette and fresh DMEM/F-12 containing 1% FCS added. Depending on the size of the pellet, about […] medium was added. Cell counts were determined by haemocytometer and the digest made up to a concentration of 100,000 cells/0.2 mL.
To conduct GAG synthesis, 0.2 mL was aliquoted into each well of a 96 well plate using an 8 channel pipetter and the cells allowed to attach for 24 hours. The media was removed and 0.3 mL of fresh 1% FCS media added for 2-3 days. On the day of the experiment, the media was removed and the experimental solutions containing 35-sulfate isotope were added. The incubation was continued for 4 hours. Termination: at the end of the incubation period, the labeling media was removed, the cell layer was rinsed repeatedly with cold 0.3 mL DMEM or F-12 (about 5 times.), and the cell layer was frozen for counting.
The cell layer for both the synthesis experiments were heated at 50 degrees after adding 100 ul 1 N NaOH for a period of 2 hours. 200 ul scintillant was added and the plates were placed in the counter. The data was expressed as CPM/100,000 cells.

Compound	Indv. Agents: CPM/100,000 cells	Indv. Agents: CPM/100,000 cells (listed as 3% Sam)	Indv. Agents: CPM/100,000 cells (listed as ChS04-H)
C[S+](CC[C@H](N)C(=O)[O-])C[C@H]1O[C@@H](n2cnc3c(N)ncnc32)[C@H](O)[C@@H]1O (some centres unmarked) [1% Sam, S-adenosylmethionine]	123 CPM/100,000 cells	42 CPM/100,000 cells	
Chondroitin [CHSO4-L]	64 CPM/100,000 cells		50 CPM/100,000 cells
N[C@H]1C(O)O[C@H](CO)[C@@H](O)[C@@H]1O (some centres unmarked) [Glu-H, Glucosamine]	117 CPM/100,000 cells		
Pentosan [10Pentos]	76 CPM/100,000 cells		
Collagen	118 CPM/100,000 cells (3×) and 70 CPM/100,000 cells		
CCCCC/C=C\C/C=C\C/C=C\C/C=C\CCCC(=O)O [AA, Arachadonic Acid]	70 CPM/100,000 cells		
